Source: ChEMBL document CHEMBL3638434, “1H-pyrrolo[2,3 b]-pyridine derivatives” (2014)

Target: T1, 3-phosphoinositide-dependent protein kinase 1 (Homo sapiens, UniProt O15530)
T1 sequence (O15530 whole entry): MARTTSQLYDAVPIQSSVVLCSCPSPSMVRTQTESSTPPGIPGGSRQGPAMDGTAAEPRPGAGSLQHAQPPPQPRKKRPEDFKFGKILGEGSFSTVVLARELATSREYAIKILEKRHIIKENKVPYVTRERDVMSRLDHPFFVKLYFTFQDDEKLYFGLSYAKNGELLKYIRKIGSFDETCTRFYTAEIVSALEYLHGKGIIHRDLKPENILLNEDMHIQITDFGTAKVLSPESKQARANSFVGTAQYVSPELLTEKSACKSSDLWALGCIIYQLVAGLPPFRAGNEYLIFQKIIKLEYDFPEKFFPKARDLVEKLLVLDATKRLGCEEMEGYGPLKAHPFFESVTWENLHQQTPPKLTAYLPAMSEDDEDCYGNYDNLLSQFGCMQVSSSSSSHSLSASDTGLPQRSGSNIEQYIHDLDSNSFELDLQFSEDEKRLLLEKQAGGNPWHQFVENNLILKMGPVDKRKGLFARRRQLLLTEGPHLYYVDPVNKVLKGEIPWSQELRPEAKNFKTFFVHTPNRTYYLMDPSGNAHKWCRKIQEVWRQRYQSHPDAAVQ
Assay: Inhibition Assay: The compound inhibits the target protein in the enzymatic PDK1 inhibition assay.

IC50 | SMILES
7.9 nM | Cn1cc(-c2cnc3[nH]cc(-c4cc(N(CCC#N)c5ccccc5)nc(N)n4)c3c2)cn1
190 nM | CN(c1cccc(F)c1)c1cc(-c2c[nH]c3ncc(-c4cnn(C)c4)cc23)ncn1
